pIC50: −log10 of the molar value.

Results on four molecules are retold here after ChEMBL document CHEMBL5727340, “Substituted nucleoside derivatives useful as anticancer agents” (2019).

The test in a line: PRMT5 assay: Compounds were solubilized in DMSO and serially diluted, using 3-fold dilutions, into 100% DMSO at a concentration 50-fold greater than the desired assay concentration. Following dilution, 1 ul was added to an empty 96-well microtiter plate. PRMT5/MEP50 protein complex was combined with H4(1-21) peptide ([…]) in PRMT5 assay buffer (50 mM Tris pH 8.5, 50 mM NaCl, 5 mM MgCl2, 1 mM EDTA, 1 mM TCEP) and 44 ul was added to the microtiter plate containing compound. S-Adenosyl-L-methionine (SAM) was prepared by combining 3H labelled SAM with unlabelled SAM in PRMT5 assay buffer such that the final SAM concentration was 10 uM and the specific activity was 0.2 uCi/ul. The reaction was initiated by adding 5 ul of SAM stock to the microtiter plate. The final reaction conditions were 10 nM PRMT5/MEP50 complex, 200 nM peptide and 1 uM SAM. Following a 25 minute incubation at room temperature, the reaction was stopped with the addition of 100 uL of 20% TCA. The 3H-peptide product was captured using a 96-well filter plate (MSIPN4B, Millipore) and washed 5 times with PBS buffer. Scintillation fluid (100 ul) was added to the dried filter plate and counted in a liquid scintillation counter. IC50 values were determined by fitting the data to the standard 4-parameter dose response equation using Pfizer proprietary software.
Consider `Cc1ncnc2c1ccn2[C@@H]1O[C@@H](C(C)O)[C@H]2OC(C)(C)O[C@H]21` (some centres undefined), for which the negative logarithm of the IC50 (pIC50) is 5.76.

For `Cc1ncnc2c1ccn2[C@@H]1O[C@H]([C@H](O)c2ccc3ccn(C)c3c2)[C@@H](O)[C@H]1O`, the pIC50 is 8.00. To `Cc1ncnc2c1ccn2[C@@H]1O[C@@H](C(C)(C)O)[C@H]2OC(C)(C)O[C@H]21` belongs 5.49; to `Cc1ncnc2c1ccn2[C@@H]1O[C@H]([C@@H](O)c2cccc(F)c2)[C@@H](O)[C@H]1O`, 5.58.

As a reminder, the pIC50 is the IC50 on a negative log10 scale, so that one unit is a factor of ten.
